The results in this text go back to ChEMBL document CHEMBL1201862, “PubChem BioAssay data set” (2004).

Among the test systems are COLO 205; UACC-257; NCI-H226; EKVX; NCI-H460; SK-MEL-5; RXF 393; SK-OV-3; MOLT-4; HCT-15; OVCAR-8; HOP-92; HL-60; SN12C; CAKI-1; ACHN; OVCAR-5; UO-31.
What all share (assay): NCI-60 cell line screen, 48 h

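Cultured in 96-well plates, cells were exposed to test compound for 48 hours across five concentrations. GI50 is the concentration that inhibits growth by half.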 The source made the active and inactive calls. No stated cut-off is given here; in the data, active = GI50 up to about 1.1 µM and inactive = higher. Some results are limits rather than exact numbers.

As to `O=C(O)C(Cl)(Cl)Cl`, the GI50 in the assay on COLO 205, with UACC-257, in the assay with NCI-H226, in the assay with EKVX, with NCI-H460 and with SK-MEL-5 was > 100 µM (inactive) in each case. The GI50 is > 100 µM (inactive) with RXF 393; > 100 µM (inactive) in the assay with SK-OV-3; > 100 µM (inactive) in the assay on MOLT-4; greater than 100 µM in the assay with HCT-15; > 100 µM (inactive) in the assay on OVCAR-8; > 100 µM (inactive) in the assay on HOP-92. The GI50 in the assay with HL-60, in the assay with SN12C, in the assay on CAKI-1, with ACHN, in the assay with OVCAR-5 and in the assay on UO-31 was > 100 µM (inactive) throughout.

With `CC12CCC(C(=O)N3CC=CCC3)(OC1=O)C2(C)C` (stereo not given), the GI50 with COLO 205, in the assay on UACC-257, in the assay with NCI-H226, in the assay with EKVX, in the assay on NCI-H460 and with SK-MEL-5 was > 100 µM (inactive) each time. In addition, the GI50 in the assay on RXF 393 is > 100 µM (inactive); in the assay with SK-OV-3, > 100 µM (inactive); with MOLT-4, > 100 µM (inactive); with HCT-15, greater than 100 µM; with OVCAR-8, > 100 µM (inactive); in the assay with HOP-92 it was > 100 µM (inactive). Further, the GI50 with HL-60, with SN12C, in the assay with CAKI-1, in the assay on OVCAR-5 and with UO-31 was > 100 µM (inactive) each time.

For the molecule `CCCC(=O)OCC1OC(n2ccc(N)nc2=O)C(OC(=O)CCC)C1OC(=O)CCC` (stereo not given), the GI50 in the assay with COLO 205 is > 100 µM (inactive); with UACC-257, > 31.7 µM (inactive); with NCI-H226, 88.5 µM (inactive); in the assay with EKVX, 2.25 µM (inactive); in the assay with NCI-H460 it was 2.74 µM (inactive); in the assay on SK-MEL-5 it was > 86.5 µM (inactive). Moreover, the GI50 with RXF 393 was > 58.7 µM (inactive); in the assay with SK-OV-3, > 100 µM (inactive); in the assay with MOLT-4, 0.33 µM (active); with HCT-15, 72.4 µM; in the assay on OVCAR-8, 6.1 µM (inactive); in the assay with HOP-92, > 45.1 µM (inactive). Also, the GI50 in the assay with HL-60 was 1.67 µM (inactive); in the assay on SN12C, 16.5 µM (inactive); with CAKI-1 it was 5.25 µM (inactive); in the assay on OVCAR-5, 15.5 µM (inactive); in the assay on UO-31 it was 21.6 µM (inactive).

For the molecule `COC(=O)c1ccc(/N=N/N(C)COc2ccc(Br)cc2)cc1`, the GI50 in the assay on COLO 205 was > 100 µM (inactive); in the assay with UACC-257 it was > 71.8 µM (inactive); in the assay on NCI-H226 it was > 100 µM (inactive); in the assay with EKVX, > 75.2 µM (inactive); with NCI-H460, 40.6 µM (inactive); with SK-MEL-5, 55.3 µM (inactive). Besides, the GI50 is 80.4 µM (inactive) in the assay with RXF 393; > 100 µM (inactive) in the assay with SK-OV-3; 26.6 µM (inactive) in the assay on MOLT-4; greater than 89.7 µM in the assay with HCT-15; > 81.5 µM (inactive) in the assay on OVCAR-8; > 53 µM (inactive) with HOP-92. In addition, the GI50 with HL-60 is 20.2 µM (inactive); with SN12C it was 68.5 µM (inactive); in the assay on CAKI-1, > 57.7 µM (inactive); in the assay with OVCAR-5, > 83.8 µM (inactive); with UO-31, > 100 µM (inactive).

For `COC(=O)C1=C(OC)c2cc3c(cc2C(c2cc(OC)c(OC)c(OC)c2)C1C(=O)OC)OCO3` (stereo not given), the GI50 with COLO 205 is 38.7 µM (inactive); in the assay with UACC-257, > 100 µM (inactive); in the assay on NCI-H226 it was > 100 µM (inactive); with EKVX it was > 100 µM (inactive); with NCI-H460, > 100 µM (inactive); in the assay with SK-MEL-5, > 100 µM (inactive). For the same molecule, the GI50 in the assay with RXF 393 is 49 µM (inactive); in the assay with SK-OV-3, > 100 µM (inactive); in the assay with MOLT-4, 30.5 µM (inactive); in the assay with HCT-15 it was greater than 100 µM; in the assay with OVCAR-8, 79.3 µM (inactive); in the assay on HOP-92, 48.9 µM (inactive). The GI50 in the assay on HL-60, with SN12C, in the assay on CAKI-1, in the assay on ACHN, in the assay with OVCAR-5 and in the assay with UO-31 was > 100 µM (inactive) each time.

`S=C(N/N=C/c1ccccc1)NC12CC3CC(CC(C3)C1)C2`: the GI50 in the assay on COLO 205 is 27 µM (inactive); in the assay on UACC-257, 26.1 µM (inactive); with NCI-H226 it was 97.7 µM (inactive); in the assay on EKVX, 71.4 µM (inactive); in the assay with NCI-H460 it was 39.5 µM (inactive); with SK-MEL-5 it was 27.2 µM (inactive). For the same molecule, the GI50 is 23.7 µM (inactive) with RXF 393; > 100 µM (inactive) in the assay with SK-OV-3; 12.3 µM (inactive) in the assay with MOLT-4; 47.8 µM with HCT-15; 60 µM (inactive) in the assay with OVCAR-8; 6.18 µM (inactive) in the assay with HOP-92. Also, the GI50 is 31.2 µM (inactive) with HL-60; 17.7 µM (inactive) in the assay on SN12C; 49.3 µM (inactive) in the assay with CAKI-1; 51.8 µM (inactive) with ACHN; 63.7 µM (inactive) in the assay on OVCAR-5; > 100 µM (inactive) in the assay with UO-31.

For the molecule `CC1S(=O)(=O)OCCOS1(=O)=O`, the GI50 with COLO 205 was > 100 µM (inactive); in the assay with UACC-257, > 94.2 µM (inactive); in the assay on NCI-H226, > 100 µM (inactive); with EKVX it was > 100 µM (inactive); in the assay on NCI-H460, 31.7 µM (inactive); with SK-MEL-5, 50.1 µM (inactive). Besides, the GI50 with RXF 393 was > 73.5 µM (inactive); in the assay on SK-OV-3, > 100 µM (inactive); with MOLT-4, 18 µM (inactive); in the assay with HCT-15 it was greater than 100 µM; in the assay with OVCAR-8 it was > 100 µM (inactive); with HOP-92, > 100 µM (inactive). Besides, the GI50 in the assay with HL-60 is 29.7 µM (inactive); with SN12C it was 77.4 µM (inactive); in the assay with CAKI-1 it was 53.3 µM (inactive); in the assay on ACHN it was 46.5 µM (inactive); with OVCAR-5, > 100 µM (inactive); in the assay with UO-31, > 100 µM (inactive).

With `C/N=c1\ss/c(=N\C(=S)N(C)C)n1-c1ccccc1`, the GI50 in the assay with COLO 205 was > 100 µM (inactive); in the assay with UACC-257, > 100 µM (inactive); with NCI-H226, > 100 µM (inactive); in the assay with EKVX it was > 100 µM (inactive); in the assay on NCI-H460, > 100 µM (inactive); with SK-MEL-5, > 20.7 µM (inactive). Also, the GI50 is > 48.2 µM (inactive) in the assay with RXF 393; > 100 µM (inactive) with SK-OV-3; > 100 µM (inactive) in the assay on MOLT-4; greater than 100 µM with HCT-15; > 100 µM (inactive) with OVCAR-8; 39.5 µM (inactive) in the assay with HOP-92. For the same molecule, the GI50 in the assay with HL-60 was > 100 µM (inactive); in the assay with SN12C it was > 100 µM (inactive); with CAKI-1, > 100 µM (inactive); in the assay with ACHN, > 100 µM (inactive); with OVCAR-5, > 100 µM (inactive); in the assay on UO-31 it was > 55.7 µM (inactive).

Consider `CC(C)OC(=O)c1cc(NC(=O)C(C)(C)C)c(F)cc1Cl`, for which the GI50 with COLO 205, in the assay on UACC-257, in the assay on NCI-H226, with EKVX, in the assay on NCI-H460 and in the assay with SK-MEL-5 was > 100 µM (inactive) throughout. Also, the GI50 was > 100 µM (inactive) in the assay on RXF 393; > 100 µM (inactive) with SK-OV-3; > 100 µM (inactive) in the assay on MOLT-4; greater than 100 µM in the assay with HCT-15; > 100 µM (inactive) with OVCAR-8; > 100 µM (inactive) in the assay on HOP-92. Moreover, the GI50 in the assay with HL-60 is 62.5 µM (inactive); in the assay with SN12C, > 100 µM (inactive); in the assay on CAKI-1, > 100 µM (inactive); in the assay on ACHN it was > 100 µM (inactive); in the assay with OVCAR-5, > 100 µM (inactive); in the assay with UO-31, > 100 µM (inactive).

Consider `CCOC(=O)/C=C/n1c2ccccc2c(=O)c2cc(OC)ccc21`, for which the GI50 in the assay with COLO 205, in the assay with UACC-257, with NCI-H226, in the assay on EKVX, in the assay with NCI-H460 and with SK-MEL-5 was > 100 µM (inactive) each time. The GI50 in the assay with RXF 393 was > 100 µM (inactive); with SK-OV-3, > 100 µM (inactive); in the assay on MOLT-4, > 100 µM (inactive); in the assay with HCT-15, 39.9 µM; with OVCAR-8, > 100 µM (inactive); in the assay on HOP-92, 57.9 µM (inactive). The GI50 in the assay on HL-60, in the assay on SN12C, with CAKI-1, in the assay with ACHN, with OVCAR-5 and in the assay with UO-31 was > 100 µM (inactive) throughout.

On to `CC(C)Cc1cccc(C(C)C)c1NC(=O)CCC(=O)N/N=C1\C(=N/NC(=O)CCC(=O)Nc2c(C(C)C)cccc2C(C)C)C(c2ccc3c(c2)OCO3)Oc2ccccc21` (stereo not given), for which the GI50 in the assay on COLO 205 is > 100 µM (inactive); in the assay on UACC-257, > 100 µM (inactive); in the assay with NCI-H226, > 100 µM (inactive); in the assay with EKVX, 9.64 µM (inactive); with NCI-H460 it was 27.9 µM (inactive); in the assay with SK-MEL-5 it was > 100 µM (inactive). The GI50 in the assay with RXF 393 is 34.9 µM (inactive); in the assay on SK-OV-3, > 100 µM (inactive); with MOLT-4 it was 57.3 µM (inactive); with HCT-15, 17.1 µM; in the assay with OVCAR-8, 69.3 µM (inactive); with HOP-92 it was > 100 µM (inactive). The GI50 in the assay with HL-60 is 34.2 µM (inactive); in the assay with SN12C, 43.2 µM (inactive); in the assay on CAKI-1, 53.2 µM (inactive); with ACHN, 83 µM (inactive); with OVCAR-5, > 100 µM (inactive); in the assay with UO-31, 43.6 µM (inactive).
